From ChEMBL document CHEMBL3585290, “Synthesis and biological evaluation of novel bivalent -carbolines as potential antitumor agents” (Medchemcomm, 2014)

Columns and labels:
[1] = Cytotoxicity against human BGC823 cells after 48 hrs by MTT assay; type: functional, cell-based; settings: BGC-823, 48 h
A-375 = assay: Cytotoxicity against human A375 cells after 48 hrs by MTT assay; type: functional, cell-based; settings: A-375, 48 h
769-P = assay: Cytotoxicity against human 769-P cells after 48 hrs by MTT assay; type: functional, cell-based
KB = assay: Cytotoxicity against human KB cells after 48 hrs by MTT assay; type: functional, cell-based
SK-OV-3 = assay: Cytotoxicity against human SKOV3 cells after 48 hrs by MTT assay; type: functional, cell-based; settings: SK-OV-3, 48 h
[2] = Acute toxicity in ip dosed C57BL/6 mouse measured for 14 days; type: organism-based; settings: in vivo
CT26 [3] = assay: Antitumor activity against mouse CT26 cells implanted in mouse assessed as tumor growth inhibition at 32.3 umol/kg, ip qd administered for 7 days starting 24 hrs post tumor implantation measured after day 21 relative to control; type: functional; settings: read-out: TGI
[4] = system: Lewis lung carcinoma cell line; assay: Antitumor activity against mouse LLC cells implanted in mouse assessed as tumor growth inhibition at 32.3 umol/kg, ip qd administered for 7 days starting 24 hrs post tumor implantation measured after day 21 relative to control; type: functional; settings: read-out: TGI
CT26 [5] = assay: Antitumor activity against mouse CT26 cells implanted in mouse assessed as tumor growth inhibition at 26.9 umol/kg, ip qd administered for 7 days starting 24 hrs post tumor implantation measured after day 21 relative to control; type: functional; settings: read-out: TGI
[6] = system: Lewis lung carcinoma cell line; assay: Antitumor activity against mouse LLC cells implanted in mouse assessed as tumor growth inhibition at 26.9 umol/kg, ip qd administered for 7 days starting 24 hrs post tumor implantation measured after day 21 relative to control; type: functional; settings: read-out: TGI
CT26 [7] = assay: Antitumor activity against mouse CT26 cells implanted in mouse assessed as tumor growth inhibition at 11.1 umol/kg, ip qd administered for 7 days starting 24 hrs post tumor implantation measured after day 21 relative to control; type: functional; settings: read-out: TGI
[8] = system: Lewis lung carcinoma cell line; assay: Antitumor activity against mouse LLC cells implanted in mouse assessed as tumor growth inhibition at 11.1 umol/kg, ip qd administered for 7 days starting 24 hrs post tumor implantation measured after day 21 relative to control; type: functional; settings: read-out: TGI
CT26 [9] = assay: Antitumor activity against mouse CT26 cells implanted in mouse assessed as tumor growth inhibition at 223.8 umol/kg, ip qd administered for 7 days starting 24 hrs post tumor implantation measured after day 21 relative to control; type: functional; settings: read-out: TGI
[10] = system: Lewis lung carcinoma cell line; assay: Antitumor activity against mouse LLC cells implanted in mouse assessed as tumor growth inhibition at 223.8 umol/kg, ip qd administered for 7 days starting 24 hrs post tumor implantation measured after day 21 relative to control; type: functional; settings: read-out: TGI
CT26 [11] = assay: Antitumor activity against mouse CT26 cells implanted in mouse assessed as tumor growth inhibition at 212.1 umol/kg, ip qd administered for 7 days starting 24 hrs post tumor implantation measured after day 21 relative to control; type: functional; settings: read-out: TGI
[12] = system: Lewis lung carcinoma cell line; assay: Antitumor activity against mouse LLC cells implanted in mouse assessed as tumor growth inhibition at 212.1 umol/kg, ip qd administered for 7 days starting 24 hrs post tumor implantation measured after day 21 relative to control; type: functional; settings: read-out: TGI
CT26 [13] = assay: animal or person; settings: Mus musculus, CT26, ip, read-out: TGI
Description: Antitumor activity against mouse CT26 cells implanted in mouse assessed as tumor growth inhibition at 114.9 umol/kg, ip qd administered for 7 days starting 24 hrs post tumor implantation measured after day 21 relative to control

[14] = system: Lewis lung carcinoma cell line; assay: animal or person; settings: Mus musculus, ip, read-out: TGI
Description: Antitumor activity against mouse LLC cells implanted in mouse assessed as tumor growth inhibition at 114.9 umol/kg, ip qd administered for 7 days starting 24 hrs post tumor implantation measured after day 21 relative to control

Structure (SMILES) | IC50 [1] [µM] | IC50 (A-375) [µM] | IC50 (769-P) [µM] | IC50 (KB) [µM] | IC50 (SK-OV-3) [µM] | LD50 at 336 h [2] [µmol/kg] | inhibition in vivo at 32.3 µmol/kg (CT26 [3]) [%] | inhibition in vivo at 32.3 µmol/kg [4] [%] | inhibition in vivo at 26.9 µmol/kg (CT26 [5]) [%] | inhibition in vivo at 26.9 µmol/kg [6] [%] | inhibition in vivo at 11.1 µmol/kg (CT26 [7]) [%] | inhibition in vivo at 11.1 µmol/kg [8] [%] | inhibition in vivo at 223.8 µmol/kg (CT26 [9]) [%] | inhibition in vivo at 223.8 µmol/kg [10] [%] | inhibition in vivo at 212.1 µmol/kg (CT26 [11]) [%] | inhibition in vivo at 212.1 µmol/kg [12] [%] | inhibition in vivo at 114.9 µmol/kg (CT26 [13]) [%] | inhibition in vivo at 114.9 µmol/kg [14] [%]
CCCCn1c2ccccc2c2cc(C(=O)OCCCCCCOC(=O)c3cc4c5ccccc5n(CCCC)c4cn3)ncc21 | 43.2 | 18.2 | 112 | 15.6 | > 200 | 162 | 33.8 | 64.2 |  |  |  |  |  |  |  |  |  | 
O=C(OCCCCCCOC(=O)c1cc2c3ccccc3n(CCCc3ccccc3)c2cn1)c1cc2c3ccccc3n(CCCc3ccccc3)c2cn1 | > 200 | 14.4 | 29.4 | 56.4 | 8.5 | 135 |  |  | 28.3 | 53.5 |  |  |  |  |  |  |  | 
COc1ccc(-c2nc(C(=O)OCCCCCCOC(=O)c3cc4c5ccccc5n(CCCc5ccccc5)c4c(-c4ccc(OC)cc4)n3)cc3c4ccccc4n(CCCc4ccccc4)c23)cc1 | 140 | 132 | 95.5 | 218 | > 200 | 55.8 |  |  |  |  | 15.1 | 24.6 |  |  |  |  |  | 
CCCCn1c2ccccc2c2cc(C(=O)O)ncc21 | 125 | 79.6 | 42.7 | 67.7 | > 200 | 1120 |  |  |  |  |  |  | 18.7 | 45.4 |  |  |  | 
O=C(O)c1cc2c3ccccc3n(CCCc3ccccc3)c2cn1 | 36.7 | 67.6 | 56.8 | 86.4 | > 200 | 1090 |  |  |  |  |  |  |  |  | 20.3 | 40.3 |  | 
O=P1(N(CCCl)CCCl)NCCCO1 (configuration not stated) [CYCLOPHOSPHAMIDE ANHYDROUS] |  |  |  |  |  |  |  |  |  |  |  |  |  |  |  |  | 87.6 | 88.1
